In the experiment the test system is intact platelets. Description: mitochondrial respiration of intact platelets (titration protocol). In kind it is cell-based, human. The method, then:
Data was recorded with DatLab software 4.3.
Integrated respiration of intact cells with endogenous mitochondrial substrates was evaluated with two different titration protocols. Platelets were suspended in either PBS-glucose or the control subject's own plasma. […] To evaluate the contribution of respiration independent of ADP phosphorylation, oligomycin (1 μg/ml, ATP-synthase inhibitor) was sequentially added inducing LEAK respiration state (also known as oligomycin-induced state 4 respiration). […] Rotenone (2 μM, complex I [CI] inhibitor) and antimycin-A (1 μg/ml, complex III [CIII] inhibitor) were then sequentially added to inhibit the ETS providing the residual oxygen consumption which was subtracted from the different respiratory parameters in further analyses.
In order to evaluate the influence on maximal respiratory capacity by the inhibition of ATP-synthase, a second experimental protocol was performed, where ETS capacity was evaluated by direct titration of FCCP after stabilization of routine respiration, followed by the same inhibitors as above. Control ratios were derived from maximal, FCCP-stimulated, respiration divided by LEAK respiration (ETS/LEAK) and routine respiration (ETS/routine).

With `C=C(C)[C@H]1Cc2c(ccc3c2O[C@@H]2COc4cc(OC)c(OC)cc4[C@@H]2C3=O)O1` [rotenone], the inhibition at 2 µM (Homo sapiens, Platelet, read-out: inhibition of respiration) is about 99%.

antimycin-A: the “further inhibition of respiration after rotenone” value (intact platelets, antimycin-A 1 μg/ml added after rotenone 2 μM) is recorded as “no further inhibition”.

The values are drawn from patent US20150253306A1 (priority 2012, published 2015).
